Assay results reported in ChEMBL document CHEMBL1201862, “PubChem BioAssay data set” (2004).
“And” between values parts separate entries of the source, which are not always exact repeats. Equal values may be shown once. The source made the active and inactive calls.

How the values were obtained:
[1] = A Cell Based Assay for the Identification of Probe candidate Compounds with Anti- Venezuelan Equine Encephalitis virus. [Related pubchem assays: 2409, 2419, 1621, 2238, 2405, 2024, 2065, 2402, 2414, 1635, 1650, 2244 ]; type: functional
Vero [2] = experiment: West Nile virus cytopathic effect inhibition, cell-based (AID 2419); type: functional; conditions: Chlorocebus sabaeus
Vero [3] = experiment: West Nile virus CPE inhibition, SAR follow-up, cell-based, synthesized analogs (AID 2238); type: functional; conditions: Chlorocebus sabaeus
Vero [4] = experiment: cytotoxicity of synthesized analogs in Vero 76, SAR follow-up, cytotoxicity control for West Nile virus antiviral project, Vero 76 cells (AID 2414); type: functional, Chlorocebus sabaeus
Vero [5] = experiment: cytotoxicity of synthesized analogs in Vero cells, SAR follow-up, cytotoxicity control for West Nile virus antiviral project, cell-based, set II (AID 2402); type: functional, Chlorocebus sabaeus
Vero [6] = experiment: West Nile virus antiviral activity, cell-based, CPE readout (AID 1621); type: functional; conditions: Chlorocebus sabaeus
Vero [7] = experiment: Vero E6 cell cytotoxicity, SAR follow-up, cytotoxicity control for West Nile virus antiviral project, synthesized analogs (AID 2244); type: functional; conditions: Chlorocebus sabaeus
[8] = target: 72 kDa type IV collagenase (Homo sapiens, UniProt P08253); experiment: Dose Response validation of uHTS RPN11 inhibitor hits using a MMP-2 Fluorescence assay.; type: functional
72 kDa type IV collagenase, sequence (P08253 whole entry): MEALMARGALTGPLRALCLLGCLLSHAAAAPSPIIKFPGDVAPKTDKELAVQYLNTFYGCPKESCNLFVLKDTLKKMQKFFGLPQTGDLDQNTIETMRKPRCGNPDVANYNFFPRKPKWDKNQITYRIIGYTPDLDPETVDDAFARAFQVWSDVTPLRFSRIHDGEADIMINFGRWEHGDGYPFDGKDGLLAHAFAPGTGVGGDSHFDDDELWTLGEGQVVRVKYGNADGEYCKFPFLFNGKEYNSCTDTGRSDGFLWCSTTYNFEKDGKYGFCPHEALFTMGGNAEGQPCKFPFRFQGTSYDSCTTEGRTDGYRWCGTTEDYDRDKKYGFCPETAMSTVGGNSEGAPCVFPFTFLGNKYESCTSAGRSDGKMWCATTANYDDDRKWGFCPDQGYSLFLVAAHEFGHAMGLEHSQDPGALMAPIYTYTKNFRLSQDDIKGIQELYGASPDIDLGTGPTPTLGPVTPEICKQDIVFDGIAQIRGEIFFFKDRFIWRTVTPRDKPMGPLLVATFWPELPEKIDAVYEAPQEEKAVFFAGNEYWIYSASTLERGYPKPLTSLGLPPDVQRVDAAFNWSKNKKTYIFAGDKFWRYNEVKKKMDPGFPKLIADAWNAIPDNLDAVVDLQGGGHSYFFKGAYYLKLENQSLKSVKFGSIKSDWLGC

[9] = target: 26S proteasome non-ATPase regulatory subunit 14 (Homo sapiens, UniProt O00487); experiment: inhibition of proteasome subunit RPN11 – biochemical, fluorescence polarization, uHTS hits, confirmation (AID 602368); type: functional
26S proteasome non-ATPase regulatory subunit 14, sequence (O00487 whole entry): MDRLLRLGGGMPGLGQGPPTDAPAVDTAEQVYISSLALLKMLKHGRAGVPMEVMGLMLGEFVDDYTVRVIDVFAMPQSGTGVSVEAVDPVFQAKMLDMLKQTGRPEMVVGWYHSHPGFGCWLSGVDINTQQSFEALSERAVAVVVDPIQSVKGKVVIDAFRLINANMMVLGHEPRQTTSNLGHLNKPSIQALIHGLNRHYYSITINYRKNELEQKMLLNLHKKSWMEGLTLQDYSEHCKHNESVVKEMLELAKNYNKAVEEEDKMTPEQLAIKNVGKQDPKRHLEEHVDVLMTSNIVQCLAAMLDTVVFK

[10] = target: Dual specificity protein phosphatase 3 (Homo sapiens, UniProt P51452); experiment: Dose Response Confirmation of compounds that inhibit VHR1 in Fluorescent Assay. [Related pubchem assays (depositor defined):AID1661, AID1878]; type: functional
Dual specificity protein phosphatase 3, sequence (P51452 whole entry): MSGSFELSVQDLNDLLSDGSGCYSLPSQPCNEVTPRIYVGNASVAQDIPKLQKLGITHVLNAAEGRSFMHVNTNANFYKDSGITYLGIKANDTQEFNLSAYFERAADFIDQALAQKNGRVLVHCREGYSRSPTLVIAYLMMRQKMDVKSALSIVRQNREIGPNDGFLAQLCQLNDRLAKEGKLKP

[11] = target: T1, Tyrosine-protein phosphatase non-receptor type 7 (Homo sapiens, UniProt P35236); experiment: Dose Response confirmation of compounds that inhibit HePTP. [Related pubchem assays (depositor defined):AID1059, AID1661, AID2085]; type: functional
T1 sequence (P35236 whole entry): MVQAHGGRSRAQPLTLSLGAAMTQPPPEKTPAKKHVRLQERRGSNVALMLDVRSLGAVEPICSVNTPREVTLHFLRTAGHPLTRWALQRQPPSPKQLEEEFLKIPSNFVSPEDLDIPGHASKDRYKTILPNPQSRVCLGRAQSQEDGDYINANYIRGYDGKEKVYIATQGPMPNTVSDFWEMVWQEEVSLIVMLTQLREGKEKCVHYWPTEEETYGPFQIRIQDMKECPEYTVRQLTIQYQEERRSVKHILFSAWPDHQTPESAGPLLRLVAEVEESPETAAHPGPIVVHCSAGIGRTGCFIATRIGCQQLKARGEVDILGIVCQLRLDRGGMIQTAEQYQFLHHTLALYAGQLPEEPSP

Prothrombin = Prothrombin (Bos taurus, UniProt P00735); experiment: thrombin inhibition, dose response, biochemical, fluorescence polarization, uHTS hits (AID 602369); type: functional
[12] = target: T2, Eukaryotic translation initiation factor 4H (Homo sapiens, UniProt Q15056); experiment: human eIF4H binding inhibitors, primary screen, translation initiation inhibitor project, biochemical, uHTS, fluorescence polarization (AID 2012)
[13] = target: T3, Polyadenylate-binding protein 1 (Homo sapiens, UniProt P11940); experiment: PABP inhibition in translation initiation, SAR follow-up (AID 435018); type: functional
T3 sequence (P11940 whole entry): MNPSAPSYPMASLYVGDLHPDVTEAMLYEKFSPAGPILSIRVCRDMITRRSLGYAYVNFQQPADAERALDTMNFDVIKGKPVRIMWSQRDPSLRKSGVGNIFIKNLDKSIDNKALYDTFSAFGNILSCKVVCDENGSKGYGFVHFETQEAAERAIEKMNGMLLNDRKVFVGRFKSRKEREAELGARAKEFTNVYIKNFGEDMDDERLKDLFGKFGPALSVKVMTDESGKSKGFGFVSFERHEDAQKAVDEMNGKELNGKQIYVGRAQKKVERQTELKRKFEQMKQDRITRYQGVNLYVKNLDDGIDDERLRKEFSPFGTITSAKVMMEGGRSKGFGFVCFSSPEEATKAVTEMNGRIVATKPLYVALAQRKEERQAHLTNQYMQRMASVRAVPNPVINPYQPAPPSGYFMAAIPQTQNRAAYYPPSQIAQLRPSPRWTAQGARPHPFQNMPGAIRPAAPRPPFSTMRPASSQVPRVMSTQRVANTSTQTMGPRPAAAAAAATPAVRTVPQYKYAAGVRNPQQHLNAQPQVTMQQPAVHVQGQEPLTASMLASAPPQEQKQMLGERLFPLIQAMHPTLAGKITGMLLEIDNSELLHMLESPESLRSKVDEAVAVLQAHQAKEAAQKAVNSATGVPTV

[14] = target: T3, Polyadenylate-binding protein 1; experiment: PABP poly(A) RNA binding inhibitors, primary screen, biochemical, fluorescence polarization, uHTS (AID 2014)
[15] = target: T2, Eukaryotic translation initiation factor 4H; experiment: eIF4H inhibition in translation initiation, SAR follow-up (AID 435011); type: functional
[16] = target: T4, E3 ubiquitin-protein ligase XIAP (Homo sapiens, UniProt P98170); experiment: XIAP antagonists, biochemical, IAP family, fluorescence polarization (AID 1018); type: functional
T4 sequence (P98170 whole entry): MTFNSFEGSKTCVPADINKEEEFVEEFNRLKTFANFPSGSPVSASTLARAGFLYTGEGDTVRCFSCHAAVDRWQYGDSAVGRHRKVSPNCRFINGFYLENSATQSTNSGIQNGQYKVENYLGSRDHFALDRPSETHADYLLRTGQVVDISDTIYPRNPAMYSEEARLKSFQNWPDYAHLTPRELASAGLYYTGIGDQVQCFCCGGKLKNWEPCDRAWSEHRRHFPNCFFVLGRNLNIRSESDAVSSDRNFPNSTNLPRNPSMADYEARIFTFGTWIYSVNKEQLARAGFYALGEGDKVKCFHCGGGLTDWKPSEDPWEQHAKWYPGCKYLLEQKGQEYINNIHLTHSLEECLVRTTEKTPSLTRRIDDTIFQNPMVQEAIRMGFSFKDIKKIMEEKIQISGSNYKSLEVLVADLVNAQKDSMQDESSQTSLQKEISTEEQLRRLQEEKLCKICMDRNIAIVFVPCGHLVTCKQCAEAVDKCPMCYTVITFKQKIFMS

[17] = target: T4, E3 ubiquitin-protein ligase XIAP; experiment: Counter Screen using XIAP-Bir3 for Chemical Antagonists of Bir1/2 domains of IAP-family anti-apoptotic proteins. [Related pubchem assays (depositor defined):AID1018, AID1449, AID1514, AID1638, AID1749, AID1750, AID488957, AID488963]

Brc1ccc2c(c1)CN1CCCC1=N2
IC50 [1]: > 66.6 µM (active) and 60.3 µM (active) | IC50 (Vero [2]): 16.8 µM (active) | IC50 (Vero [3]): 38.9 µM (active) | CC50 (Vero [4]): 124 µM (active) | CC50 (Vero [4]; Chlorocebus sabaeus, Vero): > 66.6 µM (active) | CC50 (Vero [5]): 197 µM (active) | CC50 (Vero [5]; Chlorocebus sabaeus, Vero): > 100 µM (active) | IC50 (Vero [6]): 19.7 µM (active) | CC50 (Vero [7]): > 40 µM (active)

Cc1ccc(-c2nnn3c2nc(NCCc2ccc(S(N)(=O)=O)cc2)c2ccccc23)cc1
IC50 [8]: > 100 µM (inactive) | IC50 [9]: 17.7 µM (active) | IC50 [10]: 0.783 µM (active) | IC50 [11]: 0.819 µM (active) | IC50 (Prothrombin): 77.4 µM (active)

COc1ccc(OC)c(NC(=O)CSc2ccc(-c3ccco3)nn2)c1
IC50 [12]: 16.1 µM (active) | IC50 [13]: > 100 µM (inactive) | IC50 [14]: 93.4 µM (active) | IC50 [15]: 48.7 µM (active)

CCOCCCNC(=O)c1cn(CC(C)C)c(=O)c2cc(OC)c(OC)cc12
IC50 [16]: > 100 µM (not active) | IC50 [17]: > 100 µM (inactive)
